Experimental data: publication PMC4608832, “Synthesis of New 4-Aminoquinolines and Evaluation of Their In Vitro Activity against Chloroquine-Sensitive and Chloroquine-Resistant Plasmodium falciparum” (PLoS ONE, 2015)
Like-named read-outs stand apart in the source and are kept apart here.

Columns and labels:
[1] = test system: P. falciparum 3D7 (CQ-sensitive); experiment: In vitro antiplasmodial activity, 3H-hypoxanthine incorporation, strain 3D7; type: cell-based; details: Plasmodium falciparum, IC50 ± SD
Experimental: (§1) The following strains of Plasmodium falciparum were used in this study: F32 (Tanzania), Dd2 (SE Asia), K1 (SE Asia), FcB1 (Colombia), K14 (Cambodia) and 3D7 (Africa). […] Parasites at the ring stage (laboratory A) or asynchronous parasites (laboratory B) were grown in human A+ or O+ red blood cells at a 1.5% (laboratory A) or 2% (laboratory B) haematocrit and a 0.8–1% parasitaemia. Synchronization of the parasites was performed by sorbitol treatment.
(§2) Further dilutions were in complete culture medium. The complexes were tested for their inhibitory effect toward P. falciparum intraerythrocytic development. […] 100 μL from a culture at a 3% (laboratory A) or 4% (laboratory B) hematocrit in complete medium was added per well. […] Plates were freeze-thawed and harvested on filters. […] The percentage of growth inhibition was calculated from the parasite-associated radioactivity. 100% ^3H-hypoxanthine incorporation was determined from a control grown in the absence of drug or test compound.

[2] = test system: P. falciparum Dd2; experiment: In vitro antiplasmodial activity, 3H-hypoxanthine incorporation, strain Dd2; type: cell-based; details: Plasmodium falciparum, IC50 ± SD
Experimental: as §1, §2

[3] = test system: P. falciparum K1 (CQ-resistant); experiment: In vitro antiplasmodial activity, 3H-hypoxanthine incorporation, strain K1; type: cell-based; details: Plasmodium falciparum, IC50 ± SD
Experimental: as §1, §2

[4] = test system: P. falciparum F32 (CQ-sensitive); experiment: In vitro antiplasmodial activity, 3H-hypoxanthine incorporation, strain F32; type: cell-based; details: Plasmodium falciparum
Experimental: as §1, §2
(§3) IC50 ± SD values (nM) determined from independent experiments performed in triplicate under the conditions of laboratory B (Paris).

[5] = test system: P. falciparum K14 (CQ-resistant); experiment: In vitro antiplasmodial activity, 3H-hypoxanthine incorporation, strain K14; type: cell-based; details: Plasmodium falciparum
Experimental: as §1, §2, §3

[6] = test system: P. falciparum FcB1 (CQ-resistant); experiment: In vitro antiplasmodial activity, 3H-hypoxanthine incorporation, strain FcB1; type: cell-based; details: Plasmodium falciparum
Experimental: as §1, §2, §3

[7] = Cytotoxicity, MTT, L6 cells; type: cell-based; details: rat, L-6 cells, concentration inducing 50% of cell growth arrest, three days
Experimental: (§4) The rat L-6 and human MRC-5 cell lines were routinely grown in RPMI 1640 supplemented with 11 mM glucose, 27.5 mM NaHCO3, 100 UI/mL penicillin, 100 μg/mL streptomycin and 10% fetal calf serum (RPMI-FCS), in a 5% CO2 incubator at 37°C. For cytotoxicity assays, 100 μL per well of a 2×10^4 cells/mL suspension in RPMI-FCS were deposited in a 96-well microplate and incubated overnight in culture conditions. Then decreasing concentrations of the compounds to test were established by twofold serial dilutions in RPMI-FCS and distributed at a rate of 100 μL per well and the microplate was put back in the incubator for an additional three (L-6) or five (MRC-5) day period. Then the supernatant in each well was discarded and replaced by 100 μL of MTT 1 mg/mL in RPMI-FCS. The microplate was re-incubated in culture conditions for three hours, then 100 μL of 10% SDS was added by well. The cells were left overnight in the incubator then the OD at 540nm was measured with the Bio-Tek FL600™ microplate reader equipped with the KC4™ software. […] The selectivity of each compound to P. falciparum was assessed through the selectivity index (SI), defined as CC50 (to L6 or MRC5 cells) / IC50 (to P. falciparum).

[8] = Cytotoxicity, MTT, MRC5 cells; type: cell-based; details: human, MRC-5 cells, concentration inducing 50% of cell growth arrest, five days
Experimental: as §4

[9] = In vitro microsomal metabolic stability; details: for microsomal CLint at 1 μM / half-life at 1 μM: human; for microsomal CLint at 1 μM: pH 7.4
Experimental: The evaluation of microsomal stability was performed by Cyprotex US, LLC, Watertown, MA. […] After separation on an HILIC HPLC colum (Sepax HILIC […] 2.1 x 30 mm) using an acetonitrile-water gradient system, peaks were analyzed by mass spectrometry (MS) using ESI ionization in MRM mode. The signal was optimized for each compound by ESI positive or negative ionization mode. An MS2 scan or an SIM scan was used to optimize the fragmenter voltage and a product ion analysis was used to identify the best fragment for analysis, and the collision energy was optimized using a product ion or MRM scan. An ionization ranking was assigned indicating the compound’s ease of ionization.
A control reaction omitting NADPH was performed for each compound in order to detect any NADPH-independent degradation. Aliquots were removed at 0, 10, 20, 40, and 60 min and mixed with an equal volume of ice-cold Stop Solution (methanol containing haloperidol, diclofenac, or other internal standard). The stopped reactions were further incubated for at least 10 min at -20°C, and an additional volume of water was added. The samples were centrifuged to remove precipitated protein, and the supernatants were analyzed by LC/MS/MS to quantify the remaining parent. Data were converted to % remaining by dividing by the time zero concentration value, and fitted to a first-order decay model to determine half-life values. Intrinsic clearance values were calculated from the half-life and protein concentrations by using the equation CLint = ln 2 / t1/2 [microsomal protein].

[10] = parameters: method as in PMID 11805197; details: elimination of the active metabolite after AQ; cited from earlier work
[11] = 3D7, laboratory A (Marseille), 5% CO2, 10% O2, 85% N2, read-out: Antiplasmodial activity, IC50, 3D7
[12] = 3D7, laboratory B (Paris), candle jar ~17% O2, 3% CO2, 80% N2, read-out: Antiplasmodial activity, IC50, 3D7
[13] = DD2, laboratory A (Marseille), 5% CO2, 10% O2, 85% N2, Dd2 CQ-resistant under these conditions, read-out: Antiplasmodial activity, IC50, Dd2
[14] = DD2, laboratory B (Paris), candle jar ~17% O2, 3% CO2, 80% N2, Dd2 CQ-sensitive under these conditions, read-out: Antiplasmodial activity, IC50, Dd2
[15] = K1, laboratory A (Marseille), 5% CO2, 10% O2, 85% N2, read-out: Antiplasmodial activity, IC50, K1
[16] = K1, laboratory B (Paris), candle jar ~17% O2, 3% CO2, 80% N2, read-out: Antiplasmodial activity, IC50, K1
[17] = F32, laboratory B (Paris), IC50 ± SD, read-out: Antiplasmodial activity, IC50, F32
[18] = laboratory B (Paris), IC50 ± SD, read-out: Antiplasmodial activity, IC50, K14
[19] = FCB1, laboratory B (Paris), IC50 ± SD, read-out: Antiplasmodial activity, IC50, FcB1
[20] = human liver microsomes, pH 7.4, NADPH-dep. t1/2, human liver microsomes, [Compd] = 1 μM, [protein] = 0.3 mg/mL, with NADPH
[21] = human liver microsomes, pH 7.4, NADPH-free t1/2, human liver microsomes, [Compd] = 1 μM, [protein] = 0.3 mg/mL, without NADPH

Structure (SMILES) | IC50 [1, 11] | IC50 [1, 12] | IC50 [2, 13] | IC50 [2, 14] | IC50 [3, 15] | IC50 [3, 16] | IC50 [4, 17] | IC50 [5, 18] | IC50 [6, 19] | CC50 at 3 days [7] | CC50 at 5 days [8] | microsomal CLint at 1 μM ([9]; human liver microsomes) | half-life at 1 μM [9, 20] | half-life at 1 μM [9, 21] | also measured
CCN(CC)Cc1ccc(CNc2ccnc3cc(Cl)ccc23)cc1 [Compound 3, 7-Chloro-N-(4-((diethylamino)methyl)benzyl)quinolin-4-amine] | 17.3 ± 0.58 nM | 16.1 ± 2.44 nM | 30.5 ± 2.12 nM | 17.7 ± 3.78 nM | 60.3 ± 4.07 nM | 12.4 ± 0.4 nM | 24.3 ± 2.9 nM | 33 ± 5.76 nM | 31.5 ± 5.7 nM | 13800 ± 1900 nM | 13000 ± 2260 nM | 51.1 ± 3.06 µL/min/mg | 45.3 ± 1.36 min | > 240 min | –
CCN(CC)Cc1ccccc1CNc1ccnc2cc(Cl)ccc12 [Compound 1, 7-Chloro-N-(2-((diethylamino)methyl)benzyl)quinolin-4-amine] | 13.5 ± 0.71 nM | 21.6 ± 3.11 nM | 21.3 ± 2.52 nM | 19.4 ± 2.18 nM | 52.7 ± 0.99 nM | 14.6 ± 0.36 nM | 30 ± 15.2 nM | 13.5 ± 4.66 nM | 12.1 ± 1.2 nM | 27700 ± 1730 nM | 26400 ± 1750 nM | 45.6 ± 0.12 µL/min/mg | 50.9 ± 0.55 min | > 240 min | –
CCN(CC)Cc1cccc(CNc2ccnc3cc(Cl)ccc23)c1 [Compound 2, 7-Chloro-N-(3-((diethylamino)methyl)benzyl)quinolin-4-amine] | 18.4 ± 0.66 nM | 17.1 ± 2.97 nM | 26.5 ± 5.07 nM | 17.1 ± 1.72 nM | 64.2 ± 6.16 nM | 12 ± 1.15 nM | 14.7 ± 0.45 nM | 23.6 ± 1.73 nM | 30.3 ± 1.7 nM | 20600 ± 3920 nM | 20300 ± 3400 nM | 56.2 ± 0.55 µL/min/mg | 41.1 ± 0.41 min | > 240 min | –
CCN(CC)Cc1ccc(-c2ccc(CNc3ccnc4cc(Cl)ccc34)cc2)cc1 [Compound 4, 7-Chloro-N-((4’-((diethylamino)methyl)-[1,1’-biphenyl]-4-yl)methyl)quinolin-4-amine] | 15.2 ± 1.57 nM | 12.9 ± 0.85 nM | 20.7 ± 0.2 nM | 14.4 ± 0.5 nM | 53.4 ± 2.03 nM | 11.8 ± 1 nM | 16.9 ± 1 nM | – | 17.9 ± 1.7 nM | 2800 ± 150 nM | 2600 ± 120 nM | 466 ± 44 µL/min/mg | ~5 min | > 240 min | IC50 ([5]; under conditions A (as printed in text), read-out: IC50 against K14 strain): 7.5 nM
CCN(CC)CC1=C(CNc2ccnc3cc(Cl)ccc23)CC=CC1 [Compound 5, 7-Chloro-N-((2-((diethylamino)methyl)cyclohexa-1,4-dien-1-yl)methyl)quinolin-4-amine] | – | – | 59 ± 1.85 nM | – | 63.7 ± 1.46 nM | 20.2 ± 6.55 nM | 25.4 ± 5.31 nM | 18.7 ± 1.16 nM | – | – | – | – | – | – | –
CCN(CC)Cc1cc(Nc2ccnc3cc(Cl)ccc23)ccc1O [AQ, amodiaquine, reference compound] | 24.6 ± 3.06 nM | 11.9 ± 1 nM | 31.6 ± 7.77 nM | 11.3 ± 0.64 nM | 34.3 ± 0.58 nM | 9.6 ± 0.51 nM | – | – | – | – | – | – | – | – | microsomal CLint at 1 μM ([9]; microsomes): 431 ± 33.4 µL/min/mg; half-life at 1 μM ([9]; microsomes, pH 7.4, NADPH-dep. t1/2): 5.4 ± 0.42 min; half-life at 1 μM ([9]; microsomes, pH 7.4, NADPH-free t1/2): > 240 min; terminal half-life [10]: ~ 100 h
CCN(CC)CCCC(C)Nc1ccnc2cc(Cl)ccc12 (stereo not drawn) [CQ, chloroquine] | – | – | – | – | – | – | – | – | – | – | – | – | – | – | IC50 ([1]; 3D7, read-out: Antiplasmodial activity, IC50, 3D7, laboratory A (Marseille), 5% CO2, 10% O2, 85% N2): 17.6 ± 0.71 nM; IC50 ([1]; 3D7, read-out: Antiplasmodial activity, IC50, 3D7, laboratory B (Paris), candle jar ~17% O2, 3% CO2, 80% N2): 18 ± 12.3 nM; IC50 ([2]; DD2, read-out: Antiplasmodial activity, IC50, Dd2, laboratory A (Marseille), 5% CO2, 10% O2, 85% N2, Dd2 CQ-resistant under these conditions): 522 ± 95.7 nM; IC50 ([2]; DD2, read-out: Antiplasmodial activity, IC50, Dd2, laboratory B (Paris), candle jar ~17% O2, 3% CO2, 80% N2, Dd2 CQ-sensitive under these conditions): 35.1 ± 12.1 nM; IC50 ([3]; K1, read-out: Antiplasmodial activity, IC50, K1, laboratory A (Marseille), 5% CO2, 10% O2, 85% N2): 1090 ± 164 nM; IC50 ([3]; K1, read-out: Antiplasmodial activity, IC50, K1, laboratory B (Paris), candle jar ~17% O2, 3% CO2, 80% N2): 124 ± 48 nM; IC50 ([4]; F32, read-out: Antiplasmodial activity, IC50, F32): 33.9 ± 12.3 nM; IC50 ([5]; read-out: Antiplasmodial activity, IC50, K14): 103 ± 92.5 nM; IC50 ([6]; FCB1, read-out: Antiplasmodial activity, IC50, FcB1): 111 ± 43 nM; NADPH-dep. t1/2 ([9]; human liver microsomes, [Compd] = 1 μM, [protein] = 0.3 mg/mL, with NADPH): 133.2 ± 15.52 min; microsomal CLint at 1 μM ([9]; microsomes): 17.5 ± 2.03 µL/min/mg; half-life at 1 μM ([9]; microsomes, pH 7.4, NADPH-dep. t1/2, human liver microsomes, [Compd] = 1 μM, [protein] = 0.3 mg/mL, with NADPH): 133 ± 15.5 min; half-life at 1 μM ([9]; microsomes, pH 7.4, NADPH-free t1/2, human liver microsomes, [Compd] = 1 μM, [protein] = 0.3 mg/mL, without NADPH): > 240 min
